Consider two compounds from publication PMC6687188, “Novel lactate dehydrogenase inhibitors with in vivo efficacy against Cryptosporidium parvum” (PLoS Pathogens, 2019).

Data set [1] deals with Cryptosporidium parvum. Kind of data set: Histopathology of distal small intestine of infected mice (denuded villi). The note with it: 9 days post-infection. The data set is classed as in vivo. As for the experimental part:
Gamma interferon knockout mice (B6.129S7-Ifng), 8 weeks of age, were purchased from Charles River, USA. The care and use of the mice was done following the guidelines of protocol number 17024 approved by the University of Illinois at Urbana-Champaign, USA. The animals were allowed to acclimatize for 1 week before experiments commenced. Stock solutions of recombinant CpLDH inhibitors reconstituted in DMSO were diluted in sterile distilled water to reduce the final amount of DMSO in the solution to less than 1% (v/v) before administering them to mice. Prior to testing the anti-Cryptosporidium effect of the inhibitors in mice, the tolerability of each inhibitor was tested by oral gavage using varying dosages (100–2000 mg/kg body weight) of each inhibitor in groups of mice (three mice for each dose) daily for 7 days. Mice were observed daily for signs of toxicity including changes from normal physical activity, respiration, body temperature, feeding, posture, fur condition or occurrence of death. […] Mice were allocated to groups as follows: “Infected plus inhibitor treatment”; “Infected minus inhibitor treatment”; “Uninfected minus inhibitor treatment” and “Infected plus paromomycin treatment”. Each group contained at least three mice. Each mouse in the infection groups received 5,000 C. parvum oocysts (resuspended in 50 μl of PBS) by oral gavage. Mice were housed individually in cages lined with sterile gauze as bedding. One day post-infection (PI), daily oral gavage administration of recombinant CpLDH inhibitor or paromomycin commenced and continued for a total of 7 days. Untreated mice received an equivalent volume of sterile distilled water (containing DMSO equivalent to the amount administered in the inhibitor-treated group) by oral gavage. […] An equivalent volume of PBS containing a cocktail of penicillin (100 units/ml), streptomycin (100 μg/ml), chloramphenicol (34 μg/ml) and amphotericin (0.25 μg/ml) was added to the fecal samples and stored at 4°C until use for quantification of C. parvum genomic DNA load. […]

For data set [2], the system named is HCT-8 cells. The data set is described as follows: Compound cytotoxicity assay (WST-1 cell proliferation reagent). The note with it: read-out: CYTOTOXICITY IC50; HCT-8 cells, 24 h. As for the experimental part: A colorimetric assay using the cell proliferation reagent WST-1 (Roche, USA) for the quantification of cell viability was performed. […] When the cells were confluent, the old medium was replaced with fresh medium with or without varying concentrations of chemical compound. After 24 h of culture, 10 μl of the cell proliferation reagent WST-1, (for quantification of cell viability) was added to each well, mixed and the plates incubated for 1 h at 37 C with 5% CO2 in the dark. […] Three independent assays were performed and the dose–response curves of the means of triplicate assays were generated using GraphPad PRISM software to derive the half maximal inhibitory concentration (IC50) of compounds in HCT-8 cells.
(Formazan colour is commonly taken as a measure of viable cells.)

Data set [3] is described as follows: Tolerability in mice, daily oral gavage for 7 days. The format is in vivo. The settings on record: daily oral gavage over 7 days, no toxicity signs. As to the method:
(§1) Gamma interferon knockout mice (B6.129S7-Ifng), 8 weeks of age, were purchased from Charles River, USA. The care and use of the mice was done following the guidelines of protocol number 17024 approved by the University of Illinois at Urbana-Champaign, USA. The animals were allowed to acclimatize for 1 week before experiments commenced. Stock solutions of recombinant CpLDH inhibitors reconstituted in DMSO were diluted in sterile distilled water to reduce the final amount of DMSO in the solution to less than 1% (v/v) before administering them to mice. Prior to testing the anti-Cryptosporidium effect of the inhibitors in mice, the tolerability of each inhibitor was tested by oral gavage using varying dosages (100–2000 mg/kg body weight) of each inhibitor in groups of mice (three mice for each dose) daily for 7 days. Mice were observed daily for signs of toxicity including changes from normal physical activity, respiration, body temperature, feeding, posture, fur condition or occurrence of death. […] An equivalent volume of PBS containing a cocktail of penicillin (100 units/ml), streptomycin (100 μg/ml), chloramphenicol (34 μg/ml) and amphotericin (0.25 μg/ml) was added to the fecal samples and stored at 4°C until use for quantification of C. parvum genomic DNA load. […]

Data set [4] has as its system Cryptosporidium parvum. Kind of data set: In vitro anti-Cryptosporidium assay in HCT-8 cells (immunofluorescence). The format is cell-based. As to the method:
HCT-8 cells were cultured in supplemented RPMI-1640 medium in 96-well plates. When the cells were confluent, old medium was replaced with fresh medium. To one set of wells, varying concentrations of recombinant CpLDH inhibitors (reconstituted in DMSO and diluted in RPMI medium) were added, while another set was left without inhibitors. Paromomycin was used as a positive control drug reconstituted in distilled sterile water. Then, 4 x 10^4 freshly excysted sporozoites were added to each well and incubated at 37°C with 5% CO2. After 2 h incubation, varying concentrations of CpLDH inhibitors were added to the set of infected cells that were not treated initially. Control infected cells without inhibitors, but with added DMSO volumes equivalent to those used in the wells with inhibitors, were included. The cells were maintained in culture for a total of either 48 h or 72 h and processed for immunofluorescence assay as previously described. Briefly, medium was decanted and the cells fixed with methanol-acetic acid (9:1) for 2 minute at room temperature. The cells were rehydrated and permeabilized by two successive washes with buffer (0.1% Triton X-100, 0.35 M NaCl, 0.13 M Tris-base, pH 7.6) and blocked with 5% normal goat serum, followed by staining with antibody to C. parvum (SporoGlo; Waterborn, Inc.) overnight at 4°C. The stained cells were washed twice with PBS, followed by water, and then imaged with an inverted fluorescence microscope. Fluorescence quantification was done using ImageJ version 1.37v software (NIH).

The target in data set [5] is recombinant CpLDH protein (Cryptosporidium parvum, UniProt Q9GT92, F198L/K295E/R251K).
Data set [6] concerns Cryptosporidium parvum. The data set is described as follows: In vivo anti-Cryptosporidium efficacy: real-time PCR of C. parvum DNA in feces of infected Gamma interferon knockout mice. As to the method: as §1, with “mice.” for “mice. Prior to testing the anti-Cryptosporidium effect of the inhibitors in mice, the tolerability of each inhibitor was tested by oral gavage using varying dosages (100–2000 mg/kg body weight) of each inhibitor in groups of mice (three mice for each dose) daily for 7 days. Mice were observed daily for signs of toxicity including changes from normal physical activity, respiration, body temperature, feeding, posture, fur condition or occurrence of death.”
Genomic DNA was extracted from individual fecal samples collected from mice at different days as described above. […] Quantification of the amount of C. parvum 18s rRNA gene (GenBank accession number AF164102) was performed essentially as described previously. […] The PCR product was fractionated on agarose gel, extracted using the QIAquick Gel extraction kit (Qiagen, USA), and the concentration measured by Nanodrop Spectrophotometer (Fisher, USA). Ten-fold serial dilutions of the extracted DNA fragment were made and used as quantification standards for real-time PCR. […]
Background: Real-time PCR tracks product formation cycle by cycle.

In data set [7] the test system is HCT-8 cells. Also on record: method as in PMID 10882689, PMID 18591280. The settings on record: concentrations above 1000 μM; cited from earlier work.
Data set [8] deals with Cryptosporidium parvum. Also on record: method as in PMID 18591280. The settings on record: read-out: IC50 for inhibition of C. parvum growth in HCT-8 cells; cited from earlier work.

Read-outs that look alike come from different tables or passages of the source. A value given as a limit tells only on which side of the number the result lay.

As usually defined, the IC50 is the concentration at which inhibition is half-maximal.

Consider `O=C1c2ccccc2C(=O)c2c(O)c(O)cc(O)c21` [NSC10447], for which the “reduction of percentage of denuded intestinal villi compared to infected untreated mice” value in the data set with Cryptosporidium parvum [1] is recorded as at least 7 fold. In addition, in the data set on Cryptosporidium parvum [1] (distal small intestine), the “intestinal histopathology (in words)” value is “prevented villous atrophy and maintained the integrity of the intestinal mucosa”. The IC50 with HCT-8 cells [2] turned out to be 290 µM; with Cryptosporidium parvum [4] (compound added at the time of infection, HCT-8 cells, read-out: IC50, inhibition of C. parvum growth at 72 h p.i.), 83.6 µM; in the data set with Cryptosporidium parvum [4] (read-out: IC50, inhibition of C. parvum growth at 48 h p.i. (2 h), compound added 2 h post-infection, HCT-8 cells) it was 79.5 µM; in the data set on Cryptosporidium parvum [4] (read-out: IC50, inhibition of C. parvum growth at 48 h p.i., compound added at the time of infection, HCT-8 cells), 72.7 µM; in the data set on Cryptosporidium parvum [4] (read-out: IC50, inhibition of C. parvum growth at 72 h p.i. (2 h), compound added 2 h post-infection, HCT-8 cells), 95.2 µM; in data set [5] (read-out: IC50, inhibition of recombinant CpLDH activity), 46.3 µM. In addition, the “highest tolerable dose in mice” value in data set [3] came out at 1000 mg/kg. In addition, the “C. parvum proliferation in vitro, initial screen (in words)” value in the data set with Cryptosporidium parvum [4] (48 h post-infection, concentration at least 50% lower than cytotoxicity IC50) is “significantly (P < 0.05) inhibit C. parvum proliferation”. Also, in data set [5], the “MEAN CpLDH INHIBITION (%)” value worked out at 39.07%. Also, the “lower C. parvum DNA load in feces compared to infected untreated” value with Cryptosporidium parvum [6] (250, 500 and 1000 mg/kg, day 3 until day 8) is “at least 50%”.

In the case of `NC[C@@H]1O[C@H](O[C@H]2[C@@H](O)[C@H](O[C@@H]3[C@@H](O)[C@H](N)C[C@H](N)[C@H]3O[C@H]3O[C@H](CO)[C@@H](O)[C@H](O)[C@H]3N)O[C@@H]2CO)[C@H](N)[C@@H](O)[C@@H]1O` [paromomycin, reference compound], the “cytotoxicity in HCT-8 cells” value in the data set on HCT-8 cells [7] is “negligible”. The “reduction of percentage of denuded intestinal villi compared to infected untreated mice” value in the data set on Cryptosporidium parvum [1] is at least 7 fold. The IC50 in the data set with Cryptosporidium parvum [4] (Cryptosporidium parvum, HCT-8, 48 h post-infection, positive control, time of addition not specified, read-out: IC50, inhibition of C. parvum growth) is 450 µM; in the data set on Cryptosporidium parvum [4] (Cryptosporidium parvum, HCT-8, 72 h post-infection, positive control, time of addition not specified, read-out: IC50, inhibition of C. parvum growth), 400 µM; with Cryptosporidium parvum [8], 711 µM. For the same compound, in the data set with Cryptosporidium parvum [6] (day 7 post-infection, NSC158011 400 mg/kg, paromomycin 100 mg/kg), the “reduction of shedding of C. parvum in mice feces compared to untreated infected mice” value was “about 3000 fold”.
